Results from patent EP0146338A2, “A blood accelerator 2, 3-diphosphoglyceric acid” (SHIRATORI PHARMACEUTICAL CO. LTD., priority 1983, dated 1985).

Experiments:
[1] = system: human ACD (acid chitorate dextrose) preserved blood; assay: 2,3-DPG level after addition of naphthoquinone to preserved blood (Keitt's method); assay type: cell-based; conditions: for Blood level of 2,3-DPG: One hundred PM naphthoquinone in 1 ml human ACD preserved blood, 60 min at 37°C, control 294; for Concentrations of 2,3-DPG: preserved blood, mean ± standard error, n=30
Toxicity (LD50), mouse = conditions: in vivo
Toxicity (LD50), rat = conditions: in vivo, po
[2] = system: fresh blood taken from a patient with an ischemic disease; assay: 2,3-DPG level after addition of vitamin K3 to fresh blood of patients with an ischemic disease; assay type: cell-based, human; conditions: 100 µM
Procedure: One hundred PM of each naphthoquinone (use 10 mM naphthoquinone dissolved in 50 % ethanol solution) was added to 1 ml of human ACD (acid chitorate dextrose) preserved blood (of which 2,3-DPG concentration had decreased to 1/20 of the normal level). After incubation for 60 min at 37°C, the reaction was stopped by addition of perchloric acid. According to Keitt's method (J. Lab. Clin. Med. 77, 470-475 (1971)), thereafter, 2,3-DPG was extracted and quantified.
One hundred µM of vitamin K3 was added in 1 ml of fresh blood taken from a patient with an ischemic disease, and the concentration of 2,3-DPG was determined in the same manner as in Example 1.

O=C1C=C(S(=O)(=O)O)c2ccccc2C1=O [1,2-Naphthoquinone-4-sulfonic acid, 1,2-naphthoquinone-4-sulfonic acid]
Blood level of 2,3-DPG [1]: 3923 n moles/ml RBC | LD50 (Toxicity (LD50), mouse; ip): 625 mg/kg

O=C1C=CC(=O)c2ccccc21 [1,4-Naphthoquinone, 1,4-naphthoquinone]
Blood level of 2,3-DPG [1]: 3554 n moles/ml RBC | LD50 (Toxicity (LD50), rat): 190 mg/kg

O=C1C(Cl)=C(Cl)C(=O)c2ccccc21 [2,3-Dichloro-1,4-naphthoquinone, 2,3-dichloro-1,4-naphthoquinone]
Blood level of 2,3-DPG [1]: 3971 n moles/ml RBC

CC1=CC(=O)c2ccccc2C1=O [Vitamin K3, 2-methyl-l,4-naphthoqunone]
Blood level of 2,3-DPG [1]: 3660 n moles/ml RBC | Concentrations of 2,3-DPG ([1]; dose 10 µM, dose 0: 227 ± 15): 1124 ± 107 (30) n moles/ml RBC | Concentrations of 2,3-DPG ([1]; dose 100 µM): 3256 ± 244 (30) n moles/ml RBC | Concentrations of 2,3-DPG ([1]; dose 1000 µM): 5144 ± 253 (30) n moles/ml RBC | Concentrations of 2,3-DPG ([1]; dose 10000 µM): 5569 ± 311 (30) n moles/ml RBC | blood levels of 2,3-DPG in the patients with ischemic diseases (in words) ([2]; normal subjects 4931± 53): recovered to the normal level or higher levels | Concentrations of 2,3-DPG ([2]; Buerger's Disease, n=12, no addition 4253±287): 5490±117(12) n moles/ml RBC | Concentrations of 2,3-DPG ([2]; Closed arteriosclerosis, n=15, no addition 4796±365): 5624±266(15) n moles/ml RBC | LD50 (Toxicity (LD50), mouse; po): 500 mg/kg
